The source of these data is ChEMBL document CHEMBL5244251, “Recent researches for dual Aurora target inhibitors in antitumor field” (Eur J Med Chem, 2020).

Experiment [1] in a line: Inhibition of Xenopus laevis Aurora kinase B.
In experiment [2] the target is T1, Aurora kinase C (Homo sapiens, UniProt Q9UQB9).
T1 sequence (Q9UQB9 whole entry): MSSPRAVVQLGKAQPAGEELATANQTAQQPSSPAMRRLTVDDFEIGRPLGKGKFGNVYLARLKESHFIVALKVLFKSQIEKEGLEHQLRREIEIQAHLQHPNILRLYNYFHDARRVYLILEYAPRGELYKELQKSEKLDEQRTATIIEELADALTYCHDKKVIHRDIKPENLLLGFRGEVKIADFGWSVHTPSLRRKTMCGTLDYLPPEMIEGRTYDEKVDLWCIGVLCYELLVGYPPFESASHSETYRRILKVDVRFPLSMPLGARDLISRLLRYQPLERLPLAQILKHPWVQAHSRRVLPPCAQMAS
Description: Inhibition of human Aurora C.

Experiment [3] in a line: Antitumor activity against human Fuji cells xenografted in mouse assessed as reduction in tumor volume. More on the design: scale not given: the % may be the effect or the level left. In kind it is functional. Background: Xenograft models place foreign cells or tissue in a host animal.
Experiment [4] in a line: Antitumor activity against human Fuji cells xenografted in mouse assessed as reduction in tumor weight. More on the design: scale not given: the % may be the effect or the level left. In kind it is functional.
In experiment [5] the test system is A-375. The experiment is described as follows: Antitumor activity against human A-375 cells xenografted in mouse assessed as tumor growth inhibition. In kind it is functional.

What is called IC50 is the concentration at which inhibition is half-maximal. For the compound `CCNC(=O)C#Cc1ccc2c(c1)NC(=O)/C2=C(\Nc1ccc(CN(C)C)cc1)c1ccccc1`, the half-maximal inhibitory concentration (IC50) came to 3 nM in experiment [1] and 15 nM in experiment [2]. Turning to `CN(C)S(=O)(=O)c1ccc2c(c1)/C(=C/c1cc3c([nH]1)CCCC3)C(=O)N2`, the Activity in experiment [3] amounted to 16%; in experiment [4], 13%. By TGI is commonly meant how far tumour growth fell short of that in controls. Take `Nc1nc(Nc2ccc(S(N)(=O)=O)cc2)nn1C(=O)c1c(F)cccc1F` [JNJ-7706621]: the inhibition of tumour growth (TGI) in experiment [5] is 95%.
